IC50 data for 26 compounds are collected here from patent US20250122174A1 (Shenzhen Yuanli Shenwan Innovative Medicine Co., Ltd., priority 2022, published 2025).

HPK1, sequence (Q92918 1-346 limits assumed): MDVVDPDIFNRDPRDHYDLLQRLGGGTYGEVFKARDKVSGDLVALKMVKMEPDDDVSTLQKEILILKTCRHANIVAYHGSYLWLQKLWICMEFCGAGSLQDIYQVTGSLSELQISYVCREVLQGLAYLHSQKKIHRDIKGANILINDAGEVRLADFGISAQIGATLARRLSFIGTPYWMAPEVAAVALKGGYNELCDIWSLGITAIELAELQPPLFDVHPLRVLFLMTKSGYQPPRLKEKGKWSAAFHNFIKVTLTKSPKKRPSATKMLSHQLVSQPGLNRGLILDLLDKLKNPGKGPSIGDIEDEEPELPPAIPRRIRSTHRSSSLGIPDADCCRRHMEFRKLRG

The experiment deals with HPK1 (Homo sapiens (Human), UniProt Q92918). The experiment in a line: HPK1 Inhibition Assay (ADP-Glo kinase assay). It is filed as biochemical. The following applies: ATP 10 μM. The gist of the method:
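ADP-Glo luminescence read-out after 1 h room-temperature kinase reaction with 10 μM ATP and 0.1 μg/ml MBP. Recombinant human HPK1 at 7.5 ng/μl; buffer 40 mM Tris pH 7.5, 20 mM MgCl2. Compounds serially diluted 5-fold over 10 points from 10 mM DMSO stock.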
In general terms: In ADP-Glo the light output rises with the ADP produced.
Regarding `Cn1cc2c(N3CCC(N)CC3)c(NC(=O)c3ccc(=O)n(-c4c(F)cccc4F)n3)ccc2n1` [Example 177, N-(4-(4-aminopiperidin-1-yl)-2-methyl-2H-indazol-5-yl)-1-(2,6-difluorophenyl)-6-oxo-1,6-dihydropyridazine-3-carboxamide], the IC50 was below 0.1 µM.
Take `[2H]C([2H])([2H])n1cc2c(N3C[C@@H](C)[C@@H](N)C3)c(NC(=O)c3ccc(=O)n(-c4c(F)cccc4F)n3)ccc2n1` [Example 178, N-(4-((3R,4R)-3-amino-4-methylpyrrolidin-1-yl)-2-(methyl-d3)-2H-indazol-5-yl)-1-(2,6-difluorophenyl)-6-oxo-1,6-dihydropyridazine-3-carboxamide]: the IC50 is below 0.1 µM.
`CC(C)n1ncc2c(N3CC[C@@H](N)C3)c(NC(=O)c3ccc(=O)n(-c4c(F)cccc4F)n3)ccc21` [Example 179, N-[4-[(3R)-3-aminopyrrolidin-1-yl]-1-isopropyl-indazol-5-yl]-1-(2,6-difluorophenyl)-6-oxo-pyridazine-3-carboxamide] registered an IC50 below 0.1 µM.
In the case of `CC(C)n1ncc2c(N3C[C@@H](C)[C@@H](N)C3)c(NC(=O)c3ccc(=O)n(-c4c(F)cccc4F)n3)ccc21` [Example 180, N-(4-((3R,4R)-3-amino-4-methylpyrrolidin-1-yl)-1-isopropyl-1H-indazol-5-yl)-1-(2,6-difluorophenyl)-6-oxo-1,6-dihydropyridazine-3-carboxamide] it was below 0.1 µM; in that of `CC(C)n1ncc2c(N3CCC[C@@H]3CN)c(NC(=O)c3ccc(=O)n(-c4c(F)cccc4F)n3)ccc21` [Example 181, (R)-N-(4-(2-(aminomethyl)pyrrolidin-1-yl)-1-isopropyl-1H-indazol-5-yl)-1-(2,6-difluorophenyl)-6-oxo-1,6-dihydropyridazine-3-carboxamide], below 0.1 µM; in that of `CC(C)n1ncc2c(N3C[C@H](N)C4(CC4)C3)c(NC(=O)c3ccc(=O)n(-c4c(F)cccc4F)n3)ccc21` [Example 182, (R)-N-(4-(7-amino-5-azaspiro[2.4]heptan-5-yl)-1-isopropyl-1H-indazol-5-yl)-1-(2,6-difluorophenyl)-6-oxo-1,6-dihydropyridazine-3-carboxamide], below 0.1 µM.
With `CC(C)n1ncc2c(N3CCC[C@@H](N)C3)c(NC(=O)c3ccc(=O)n(-c4c(F)cccc4F)n3)ccc21` [Example 183, (R)-N-(4-(3-aminopiperidin-1-yl)-1-isopropyl-1H-indazol-5-yl)-1-(2,6-difluorophenyl)-6-oxo-1,6-dihydropyridazine-3-carboxamide], the IC50 is below 0.1 µM.
Turning to `Cc1cc(NC(=O)c2ccc(=O)n(-c3c(F)cccc3F)n2)c(N2CC[C@@H](N)C2)c2cnn(C(C)C)c12` [Example 185, (R)-N-(4-(3-aminopyrrolidin-1-yl)-1-isopropyl-7-methyl-1H-indazol-5-yl)-1-(2,6-difluorophenyl)-6-oxo-1,6-dihydropyridazine-3-carboxamide], the IC50 is below 0.1 µM.
As for `CC(C)n1ncc2c(N3C[C@H](N)C(C)(C)C3)c(NC(=O)c3ccc(=O)n(-c4c(F)cccc4F)n3)ccc21` [Example 186, (R)-N-(4-(4-amino-3,3-dimethylpyrrolidin-1-yl)-1-isopropyl-1H-indazol-5-yl)-1-(2,6-difluorophenyl)-6-oxo-1,6-dihydropyridazine-3-carboxamide], the IC50 is below 0.1 µM.
Take `CC(C)n1ncc2c(N3C[C@@H](N)C(C)(C)C3)c(NC(=O)c3ccc(=O)n(-c4c(F)cccc4F)n3)ccc21` [Example 187, (S)-N-(4-(4-amino-3,3-dimethylpyrrolidin-1-yl)-1-isopropyl-1H-indazol-5-yl)-1-(2,6-difluorophenyl)-6-oxo-1,6-dihydropyridazine-3-carboxamide]: the IC50 was below 0.1 µM.
Turning to `CC(C)n1ncc2c(N3CC[C@@H](N)C3)c(NC(=O)c3ccc(=O)n(-c4c(F)cccc4F)n3)cc(F)c21` [Example 188, (R)-N-(4-(3-aminopyrrolidin-1-yl)-7-fluoro-1-isopropyl-1H-indazol-5-yl)-1-(2,6-difluorophenyl)-6-oxo-1,6-dihydropyridazine-3-carboxamide], the IC50 was below 0.1 µM.
On to `CC(C)n1ncc2c(N3C[C@H](N)C4(CC4)C3)c(NC(=O)c3ccc(=O)n(-c4c(F)cccc4F)n3)cc(F)c21` [Example 189, (R)-N-(4-(7-amino-5-azaspiro[2.4]heptan-5-yl)-7-fluoro-1-isopropyl-1H-indazol-5-yl)-1-(2,6-difluorophenyl)-6-oxo-1,6-dihydropyridazine-3-carboxamide], for which the IC50 was below 0.1 µM.
`CC(C)n1nc(Cl)c2c(N3CC[C@@H](N)C3)c(NC(=O)c3ccc(=O)n(-c4c(F)cccc4F)n3)cc(F)c21` [Example 190, (R)-N-(4-(3-aminopyrrolidin-1-yl)-3-chloro-7-fluoro-1-isopropyl-1H-indazol-5-yl)-1-(2,6-difluorophenyl)-6-oxo-1,6-dihydropyridazine-3-carboxamide]: the IC50 was below 0.1 µM.
For the compound `CC(C)n1nc(Cl)c2c(N3C[C@@H](C)[C@@H](N)C3)c(NC(=O)c3ccc(=O)n(-c4c(F)cccc4F)n3)ccc21` [Example 191, N-(4-((3R,4R)-3-amino-4-methylpyrrolidin-1-yl)-3-chloro-1-isopropyl-1H-indazol-5-yl)-1-(2,6-difluorophenyl)-6-oxo-1,6-dihydropyridazine-3-carboxamide], the IC50 was below 0.1 µM.
`Cc1nn(C(C)C)c2ccc(NC(=O)c3ccc(=O)n(-c4c(F)cccc4F)n3)c(N3C[C@@H](C)[C@@H](N)C3)c12` [Example 192, N-(4-((3R,4R)-3-amino-4-methylpyrrolidin-1-yl)-1-isopropyl-3-methyl-1H-indazol-5-yl)-1-(2,6-difluorophenyl)-6-oxo-1,6-dihydropyridazine-3-carboxamide] yielded an IC50 below 0.1 µM.
With `CC(C)n1ncc2c(N3C[C@@H](C)[C@@H](N)C3)c(NC(=O)c3ccc(=O)n(-c4c(F)cccc4F)n3)cc(F)c21` [Example 193, N-(4-((3R,4R)-3-amino-4-methylpyrrolidin-1-yl)-7-fluoro-1-isopropyl-1H-indazol-5-yl)-1-(2,6-difluorophenyl)-6-oxo-1,6-dihydropyridazine-3-carboxamide], the IC50 was below 0.1 µM.
In the case of `CC(C)n1ncc2c(N3C[C@@H]4NCCO[C@H]4C3)c(NC(=O)c3ccc(=O)n(-c4c(F)cccc4F)n3)ccc21` [Example 194, 1-(2,6-difluorophenyl)-N-(4-((4aS,7aS)-hexahydropyrrolo[3,4-b][1,4]oxazin-6(2H)-yl)-1-isopropyl-1H-indazol-5-yl)-6-oxo-1,6-dihydropyridazine-3-carboxamide], the IC50 is below 0.1 µM.
`Cc1nn(C(C)C)c2ccc(NC(=O)c3ccc(=O)n(-c4c(F)cccc4F)n3)c(N3CC[C@@H](N)C3)c12` [Example 195, (R)-N-(4-(3-aminopyrrolidin-1-yl)-1-isopropyl-3-methyl-1H-indazol-5-yl)-1-(2,6-difluorophenyl)-6-oxo-1,6-dihydropyridazine-3-carboxamide] had an IC50 below 0.1 µM.
`CC(C)n1nc(F)c2c(N3C[C@@H](C)[C@@H](N)C3)c(NC(=O)c3ccc(=O)n(-c4c(F)cccc4F)n3)ccc21` [Example 198, N-(4-((3R,4R)-3-amino-4-methylpyrrolidin-1-yl)-3-fluoro-1-isopropyl-1H-indazol-5-yl)-1-(2,6-difluorophenyl)-6-oxo-1,6-dihydropyridazine-3-carboxamide]: the IC50 was below 0.1 µM.
With `CC(C)n1nc(F)c2c(N3C[C@H](N)C4(CC4)C3)c(NC(=O)c3ccc(=O)n(-c4c(F)cccc4F)n3)ccc21` [Example 199, (R)-N-(4-(7-amino-5-azaspiro[2.4]heptan-5-yl)-3-fluoro-1-isopropyl-1H-indazol-5-yl)-1-(2,6-difluorophenyl)-6-oxo-1,6-dihydropyridazine-3-carboxamide] the figure was 0.1 to 1 µM; with `CO[C@@H]1CN(c2c(NC(=O)c3ccc(=O)n(-c4c(F)cccc4F)n3)ccc3c2cnn3C(C)C)C[C@H]1N` [Example 201, N-(4-((35,4S)-3-amino-4-methoxypyrrolidin-1-yl)-1-isopropyl-1H-indazol-5-yl)-1-(2,6-difluorophenyl)-6-oxo-1,6-dihydropyridazine-3-carboxamide], below 0.1 µM; with `Cc1nn(C(C)C)c2ccc(NC(=O)c3ccc(=O)n(-c4c(F)cccc4F)n3)c(N3C[C@H](N)C4(CC4)C3)c12` [Example 202, (R)-N-(4-(7-amino-5-azaspiro[2.4]heptan-5-yl)-1-isopropyl-3-methyl-1H-indazol-5-yl)-1-(2,6-difluorophenyl)-6-oxo-1,6-dihydropyridazine-3-carboxamide], below 0.1 µM.
On to `CC[C@H]1CN(c2c(NC(=O)c3ccc(=O)n(-c4c(F)cccc4F)n3)cc(F)c3c2cnn3C(C)C)C[C@H]1N` [Example 203, N-(4-((35,4S)-3-amino-4-ethylpyrrolidin-1-yl)-7-fluoro-1-isopropyl-1H-indazol-5-yl)-1-(2,6-difluorophenyl)-6-oxo-1,6-dihydropyridazine-3-carboxamide], for which the IC50 was below 0.1 µM.
Turning to `CC(C)n1ncc2c(N3CC[C@@H](CN)C3)c(NC(=O)c3ccc(=O)n(-c4c(F)cccc4F)n3)cc(F)c21` [Example 204, (S)-N-(4-(3-(aminomethyl)pyrrolidin-1-yl)-7-fluoro-1-isopropyl-1H-indazol-5-yl)-1-(2,6-difluorophenyl)-6-oxo-1,6-dihydropyridazine-3-carboxamide], the IC50 is below 0.1 µM.
In turn, `CO[C@H]1CN(c2c(NC(=O)c3ccc(=O)n(-c4c(F)cccc4F)n3)ccc3c2cnn3C(C)C)C[C@H]1N` [Example 205, N-(4-((3R,4S)-3-amino-4-methoxypyrrolidin-1-yl)-1-isopropyl-1H-indazol-5-yl)-1-(2,6-difluorophenyl)-6-oxo-1,6-dihydropyridazine-3-carboxamide] returned an IC50 below 0.1 µM.
On to `CC(C)n1ncc2c(N3CC(N)C4(COC4)C3)c(NC(=O)c3ccc(=O)n(-c4c(F)cccc4F)n3)ccc21` (centres unmarked) [Example 206, N-(4-(8-amino-2-oxa-6-azaspiro[3.4]octan-6-yl)-1-isopropyl-1H-indazol-5-yl)-1-(2,6-difluorophenyl)-6-oxo-1,6-dihydropyridazine-3-carboxamide], for which the half-maximal inhibitory concentration (IC50) is below 0.1 µM.

What is called IC50 is the point on the concentration scale where inhibition reaches its midpoint.
